Experimental data: PMC9343080, “Distribution- and Metabolism-Based Drug Discovery: A Potassium-Competitive Acid Blocker as a Proof of Concept” (Research, 2022)
Where two headings read alike, the source gives them in different places. Marks after values point to notes of the source that are not given here.

Legend:
[1] = test system: 2-DG-stimulated gastric acid secretion; assay: In vivo inhibition of 2DG-stimulated acid secretion in anesthetized rats; design: species or system rat; settings: i.g. 2 mg/kg
Protocol: (§1) 60 SPF SD rats weighing 180-220 g were randomly divided into […]: sham, model, SH-337 (2 mg/kg and 4 mg/kg), vonoprazan (2 mg/kg), males and females are equally divided. Fasting for 24 hours, model and sham groups were treated with deionized water. Drugs and vehicle were given through intragastric administration to rats before anesthesia. 1 h after administration, pylorus was ligated. 5 min later, histamine 2HCl (30 mg/10 mL/kg) was injected subcutaneously. At 3 h after histamine administration, the rats were killed by CO2 asphyxiation. The gastric contents were collected in a 10 mL centrifuge tube after removing their stomachs. Centrifuge at 3000 g for 10 min, and then, determine the total acid output during a 3 h period by 0.1 M NaOH [52, 53]. %Inhibition = (average of modelacid–drugacid)/average of modelacid × 100%.
The 2DG-stimulated acid secretion in anesthetized rats was measured as described as for histamine-stimulated acid secretion, with the exception that 5 min after pylorus ligation, 2-DG (200 mg/10 mL/kg) was injected subcutaneously.

[2] = Tissue distribution of vonoprazan and its metabolites in rats (previous studies); assay type: in vivo, rat; settings: 1 h after oral 2.0 mg/kg, calculated from data of a previous study, ref [40]
[3] = test system: histamine-stimulated gastric acid secretion; assay: In vivo inhibition of histamine-stimulated acid secretion in anesthetized rats; design: species or system rat
Protocol: as §1

[4] = ref [43], cited from earlier work
[5] = target: T1, rabbit gastric H+, K+-ATPase (Oryctolagus cuniculus, UniProt P27112); assay: In vitro enzymatic activity assay (inorganic phosphate from ATP hydrolysis); assay type: biochemical
T1 construct: using rabbit gastric H^+, K^+-ATPase; from tissue; host or cells: rabbit stomach (gastric preparation; the method of preparation is not described)
Protocol: The in vitro enzymatic activity was calculated by measuring the inorganic phosphate produced by the hydrolysis of ATP using rabbit gastric H^+, K^+-ATPase. 0.25 μg enzyme was preincubated at 37°C for 30 min in Tris-HCl buffer (2.0 mL, 50 mM, pH 6.5) containing 5 mM MgCl2, 10 μM valinomycin, 0 or 20 mM KCl, and different concentrations of SH-337 and vonoprazan. The reaction was initiated by adding 5 μL of 5 mM ATP 2Na, and the preparation was incubated for 30 min at 37°C and halted by the addition of 100 μL of malachite green reagent (0.12% malachite green, 7.5% ammonium molybdate, and 11% tween 20 were mixed in a volume ratio of 100 : 25 : 2). H^+, K^+-ATPase activity was calculated after subtracting the enzyme activity in the absence of KCl.

[6] = cited from earlier work; for Drug concentration, Plasma: 2 mg/kg
[7] = pH 7.4; ref [35], [38], [39]; cited from earlier work
Na+, K+-ATPase = assay: In vitro Na+, K+-ATPase activity; assay type: biochemical
Rat microsomal stability = assay type: in vitro ADME; settings: rat, rat liver microsomes; read-out: Metabolic stability (t1/2) rat
Protocol: (§2) The in vitro metabolic stabilities of selected compounds were performed using human and rat liver microsomes in triplicate as described previously.

[8] = Human microsomal stability; assay type: in vitro ADME; settings: human, human liver microsomes; read-out: Metabolic stability (t1/2) human
Protocol: as §2

[9] = AUC0–24, rats, i.g. 2 mg/kg vonoprazan, ref [43]
[10] = rats, 1 h after oral administration of 2.0 mg/kg, ref [40]
[11] = rats, i.g. 2 mg/kg vonoprazan, ref [43]

T1 sequence (P27112 whole entry): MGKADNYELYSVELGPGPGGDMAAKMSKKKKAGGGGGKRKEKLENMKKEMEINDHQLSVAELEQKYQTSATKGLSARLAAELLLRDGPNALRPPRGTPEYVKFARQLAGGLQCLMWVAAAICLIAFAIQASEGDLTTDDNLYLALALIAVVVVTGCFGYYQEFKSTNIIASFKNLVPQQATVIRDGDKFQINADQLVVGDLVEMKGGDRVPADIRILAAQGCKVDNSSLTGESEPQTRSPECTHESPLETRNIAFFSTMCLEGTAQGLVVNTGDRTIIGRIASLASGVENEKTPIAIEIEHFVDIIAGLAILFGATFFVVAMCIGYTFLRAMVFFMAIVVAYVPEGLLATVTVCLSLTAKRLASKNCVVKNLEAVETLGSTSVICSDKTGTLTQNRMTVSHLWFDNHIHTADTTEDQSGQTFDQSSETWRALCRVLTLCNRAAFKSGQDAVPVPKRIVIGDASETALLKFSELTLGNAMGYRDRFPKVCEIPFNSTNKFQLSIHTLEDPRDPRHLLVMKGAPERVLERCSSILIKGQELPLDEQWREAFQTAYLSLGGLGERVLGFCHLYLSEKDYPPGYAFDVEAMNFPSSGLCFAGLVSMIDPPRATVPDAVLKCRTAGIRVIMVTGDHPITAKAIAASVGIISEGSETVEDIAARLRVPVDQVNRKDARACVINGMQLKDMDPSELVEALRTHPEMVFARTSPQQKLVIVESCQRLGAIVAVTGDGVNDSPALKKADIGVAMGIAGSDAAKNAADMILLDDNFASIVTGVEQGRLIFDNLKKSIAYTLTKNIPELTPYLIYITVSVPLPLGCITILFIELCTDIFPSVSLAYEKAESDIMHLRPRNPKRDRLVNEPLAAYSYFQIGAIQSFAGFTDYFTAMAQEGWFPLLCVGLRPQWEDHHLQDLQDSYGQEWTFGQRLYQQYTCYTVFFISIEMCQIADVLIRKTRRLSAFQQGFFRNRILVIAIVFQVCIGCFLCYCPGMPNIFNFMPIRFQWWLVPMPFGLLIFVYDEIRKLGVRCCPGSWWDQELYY
T1 sequence (P18597 whole entry partner): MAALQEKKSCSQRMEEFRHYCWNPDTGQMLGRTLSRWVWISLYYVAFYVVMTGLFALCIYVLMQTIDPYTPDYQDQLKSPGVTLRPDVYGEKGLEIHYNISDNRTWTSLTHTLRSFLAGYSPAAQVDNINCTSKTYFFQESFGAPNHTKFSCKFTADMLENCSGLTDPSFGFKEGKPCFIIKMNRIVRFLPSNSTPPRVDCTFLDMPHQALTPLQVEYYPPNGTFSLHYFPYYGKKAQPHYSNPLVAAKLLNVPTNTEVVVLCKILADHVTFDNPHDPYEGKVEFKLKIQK

## CNCc1cc(-c2ccccc2F)n(S(=O)(=O)c2cccnc2)c1.O=C(O)/C=C/C(=O)O [Vonoprazan, 1-[5-(2-fluorophenyl)-1-(pyridin-3-ylsulfonyl)-1H-pyrrol-3-yl]-N-methylmethanamine fumarate]
[1]
  Inhibition (%), 2-DG-stimulated model: 80%
  Total acid output, 2-DG-stimulated model: 0.62 ± 0.55^∗∗ 10^−4 mol
[2]; 2 mg/kg
  C Stomach/CPlasma: 87.0^e
[2]; rat, stomach/plasma, read-out: C Stomach/CPlasma
  Kp at 1 h: 87
[3]; histamine-induced acid secretion in rats, 2 mg/kg, i.g. (Table 2)
  In vivo efficacy (% inhibition): 78%
[3]; rats, i.g. 2 mg/kg
  Total acid output, histamine-stimulated model: 0.29 ± 0.43^∗∗ 10^−4 mol
[4]; 100 mg/kg dose of vonoprazan, males
  ALT and total cholesterol: high ALT and total cholesterol were observed in males
[4]
  no observed adverse effect level (NOAEL): 30 mg/kg
[5]
  IC50: 0.0655 µM
[6]; [9]
  C Stomach/CLiver (stomach-liver distribution ratio): 3.2
  C Stomach/CPlasma (stomach-plasma distribution ratio): 165.0
[6]; AUC0–24, rats, i.g. 2 mg/kg vonoprazan, ref [43], listed as vonoprazan
  C Stomach/CPlasma (stomach-plasma distribution ratio): 165
[6]; [10]
  Drug concentration, Plasma: 11.0^c ng/mL
  Drug concentration, Stomach: 957.0^c ng/mL
[6]; rats, 1 h after oral administration of 2.0 mg/kg, ref [40], listed as vonoprazan
  Drug concentration, Plasma: 11 ng/mL
[6]; [11]
  AUC0–24, Liver: 4039.0 ng equiv. h/mL or g
  AUC0–24, Plasma: 79.0 ng equiv. h/mL or g
  AUC0–24, Stomach: 13085.0 ng equiv. h/mL or g
[7]
  log D7.4: 0.4^a
Na+, K+-ATPase
  IC50: 47.1 µM
Na+, K+-ATPase; Na+, K+-ATPase over H+, K+-ATPase
  Fold selectivity: 719.4 fold
Rat microsomal stability
  half-life: 0.908 h
[8]
  half-life: 5.65 h
